Test results reported in US20140221472A1, “USE OF MYRICETIN OR DERIVATIVES THEREOF AS A CATHEPSIN K INHIBITOR” (JILINSHENG JINZIYUAN BIOTECHNOLOGY LTD, priority 2013, published 2014).

Assays:
[1] = test system: BALB/C mice; experiment: Maximum tolerated dose acute toxicity test; type: in vivo; details: 100 g/kg body weight, single gavage, observed 2 weeks
Text: BALB/C mice were bred by Harbin Veterinary Research Institute of Experimental Animal Center, Chinese Academy of Agricultural Sciences, and the animal quality permit number is Heilongjiang-SYXK 2006-032. The selection conditions are age at 9 weeks to 10 weeks, weighing about 20 g, half male and half female.
The animal laboratory had regular air ventilation, good lighting, and constant laboratory room temperature. There were five mice per cage, and they were fed with extruded feed produced specifically for mice, with free access to drinking water.
Firstly, the acute toxicity tests were conducted on to evaluate the safety of myricetin in order to provide the basis for the therapeuticapplication of myricetin. In this study, the maximum tolerated dose acute toxicity test was used. Twenty of BALB/C mice with the healthy body weight about 20 g, half male and half femalewere selected, The clinical intended route of administration is oral, so this experiment used intragastric administration. Myricetin (purchased from Shanghai Chemical Co., Ltd. Item No. A0145, Myricetin; 3,5,7,3,4′,5′-hexahydroxyflavone, CAS No: 529-44-2. Pure and natural extracts, purity ismore than 98.5% confirmed by NMR and HPLC purity analysis) was modulated into a stick-like with distilled water. Dosed at […] body weight, gavage was conducted to the mice (about 200 mg myricetin per mouse). […]

[2] = test system: type II collagen-induced arthritis mice; experiment: Bovine type II collagen-induced arthritis in mice; type: in vivo
Experimental: Firstly, same strains and sources of animals as shown in Example 2 were selected, and total 105 of 9-week-old BALB / C mice were fed under the same conditions. There were 70 mice that each had subcutaneous injection of 200 ug of Freund's adjuvant emulsified bovine type II collagen. 15 days after the first immunization, subcutaneous injection was applied again at 200 ug per mouse with incomplete Freund's adjuvant emulsified bovine type H collagen to strengthen the immunity. After 24 days of the first injection, the 70 mice were divided into two groups, of which 35 mice were treated with myricetin intake orally 25 mg/kg body weight daily as a treated-group, while the other 35 were the model control group fed normally without myricetin. The remaining 35 mice were the normal control group without immunization and fed with normal food, used as a blank control.
Throughout the testing period, arthritis conditions of the mice and arthritic conditions after the treatment were observed. After immunization with type II collagen on mice, the conventional methods were used by measuring the degree of paw swelling (thickness) (see FIG. 3) and weight change (see FIG. 4), and myricetin therapeutic effects were monitored and evaluated throughout the procedure (0.5 mm increased thickness for one magnitude) (see FIG. 5).
On the 48 day, the blood from the heart was extracted, and the serum was separated, meanwhile all mice were killed. The mouse urinary deoxypyridinoline (urinary deoxypyridinoline) (see FIG. 6), type I collagen C telopeptide (CTX-I) (see FIG. 7) and serum cartilage oligomeric matrix protein (COMP) were examined, and histological treatment evaluation were conducted (see FIG. 8).
The mouse urinary deoxypyridinolineideoxypyridinoline kit (DPD kit from Shanghai Huyu Biotech Co., Ltd., No. HY-E3170B) was used. According to the instructions provided, iMark-BIO-RAD microplate reader (U.S. BIO-RAD) was used to detect the concentration of mouse urinary deoxypyridinoline at 450 wavelength (see FIG. 6).
Rat C-terminal peptide of type I collagen (CTX-I) ELISA Kit from Shanghai Jima Biotech Co., Ltd., NO Wk30026) was used. According to the method provided by the kit instruction, the change in the content of type I collagen C-terminal peptide in mice serum was detected to evaluate the effect that myricetin prevented type I collagen degradation by suppressing cathepsin K (see FIG. 7).
The cartilage oligomeric matrix protein ELISA kit (from Shanghai Yihan Biotech Co., Ltd., No. SU10580) was used.
After killing of the mice, the paws were fixed with 4% formaldehyde for 24 hours, then decalcificated using 500 mmol of EDTA […]. The paraffin sections were prepared using the conventional method and stained with hematoxylin / eosin staining method. […] The synovial surface almost disappeared with a rough surface in a grid pattern, and there were a large number of macrophages. […] It can be concluded that by myricetin therapeutic administration, the mice arthritis is mostly recovered (see FIG. 9).
Based on mice joint tissue sections, according to methods from Larsson et. al. (Rheumatology (Oxford), 2004, 43 (4),428-434),the therapeutic effect of myricetin on rheumatoid arthritis in mice was evaluated, as well as the degree of arthritis. Main evaluation were based on: (1) the size of the joint cavity, inflammatory cell infiltration, cartilage damage and fibrin deposition. From three individual evaluations, it was divided into three levels, which are 0 for normal, level 1 for the light degree of arthritis, level 2 for the moderate arthritis and level 3 for severe arthritis (see FIGS. 3 and 5). (2) The weight change (see FIG. 4). (3) histology examination (see FIG. 9) and evaluation (see FIGS. 10 and 11).

[3] = cited from earlier work
[4] = left in air; becomes green; cited from earlier work
[5] = molecular target: T1, cathepsin K (Homo sapiens, UniProt P43235); experiment: Cathepsin K activity with fluorogenic substrate HD-Ala-Leu-Lys-AMC; type: biochemical; parameters: made in house; details: 100,200,500,1000 uM; fluorescence 390/460 nm; effect enhanced as concentration increased
T1 sequence (P43235 115-329): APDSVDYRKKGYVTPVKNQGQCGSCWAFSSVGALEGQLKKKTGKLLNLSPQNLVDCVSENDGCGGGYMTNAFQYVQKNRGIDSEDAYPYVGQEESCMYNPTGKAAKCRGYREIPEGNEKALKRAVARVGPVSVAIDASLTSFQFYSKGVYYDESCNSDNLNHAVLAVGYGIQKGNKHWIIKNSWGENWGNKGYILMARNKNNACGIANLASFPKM
Experimental: Using a Fluoroskan Ascent, recombinant cathepsin K inhibition ratios with different concentration of myricetin were calculated after completion of the reaction and the IC50 value was determined.
In order to determine the inhibitory effect of myricetin on cathepsin K activity, a cathepsin. K specific fluorogenic substrate HD-Ala-Leu-Lys-AMC (Cat. No. 104881-72-3, purchased from GL Biochem (Shanghai) Co., Ltd.) was used and Cary Eclipse fluorescence spectrophotometer (Agilent Technologies Inc., Beijing) for quantitative analysis was applied. 1 ug of cathepsin K-specific fluorogenic substrate HD-ALK-AMC, 1 ug cathepsin K, myricetin compounds dissolved in 20% ethanol with final concentrations of 100,200,500,1000 uM were added into 50 mM of phosphate buffer. An additional 50 mM of phosphate buffer (pH6.0) was added to bring a total volume of 500 uL. And the reaction sample was inhibited at 37° C. for 15 hours in a water bath. As a positive control without any candidate compound, 1 ug of cathepsin K specific fluorogenic substrate HD-ALK-AMC and 1 ug of cathepsin K, and 50 mmol phosphate buffer solution (pH6.0) were added to bring a total volume of 500 uL. […] After completion of the reaction, the samples were measured at 390 nm excitation wavelength and 460 nm emission wavelength for fluorescence intensity changes assay, and the value of cathepsin K activity was calculated.

[6] = molecular target: T1, cathepsin K; experiment: Cathepsin K induced collagen degradation, SDS-PAGE screening; type: biochemical; parameters: made in house; host or cells: yeast cells (the cited Linnevers et al. method uses Pichia pastoris); details: 100 uM myricetin, collagen type I/II substrate, pH 6.0, 37° C., 15 hours
Text: A series of Chinese herbal medicine of monomer myricetin were purchased from Shanghai Jingke Chemical Co., Ltd.,(Cat. No. A0145, 3,5,7,3′, 4′, 5′-hexahydroxyflavone, CAS No: 529-44-2). It was purified from natural plant (the purity is more than 98.5% confirmed by NMR and HPLC purity assay) and was used as an inhibitor candidate compound. Meanwhile, collagen type I (Cat No. SU2087) and collagen type II (Cat No. SU2088) were purchased from SIGMA and were used as a substrate for cathepsin K. For screening experiments, […] and 1 ug cathepsin K were added into 50 mM phosphate buffer (pH6.0), then myricetin compounds dissolved in 20% ethanol were added with the final concentrations of 100,200,500,1000 uM, respectively, finally an additional 50 mM of phosphate buffer (pH 6.0) was added again to bring a total volume of 500 uL. The reactions were incubated at 37° C. for 15 hours in a water bath. As a positive control without any candidate compound, 100 ug collagen, […], and 50 mM phosphate buffer solution (pH6.0) were added to bring a total volume of 500 uL. […] After completion of the reactions, the reaction samples were applied to 10% SDS-PAGE gel electrophoresis, coomassie blue staining and destaining, and the intensity of the stained protein bands were analyzed. […]

O=c1c(O)c(-c2cc(O)c(O)c(O)c2)oc2cc(O)cc(O)c12 [myricetin, 3,5,7-Trihydroxy-2-(3,4,5-trihydroxyphenyl)-4H-1-benzopyran-4-one]
symptoms of poisoning and death [1]: free of any symptoms of poisoning | arthritis symptoms (paw swelling, clinical score) ([2]; 25 mg/kg daily orally from day 24 to 48, vs immunized mice): significantly improved | degree of arthritis ([2]; 25 mg/kg p.o., compared with the model group, P<0.05): significantly reduced | concentration of urinary deoxypyridinoline ([2]; 25 mg/kg p.o., day 48, ELISA, vs control group, P<0.001): significantly lower | content of type I collagen C-terminal peptide in mice serum ([2]; 25 mg/kg p.o., day 48, ELISA, vs model control group, P<0.001): significantly lower | content of cartilage oligomeric matrix protein in mice serum ([2]; 25 mg/kg p.o., day 48, ELISA, vs model control group, P<0.005): significantly lower | synovial surface pathological changes (histology) ([2]; 25 mg/kg p.o., day 48, hematoxylin/eosin paw sections): significantly reduced pathological changes | focal hyperplasia of the synovial lining cells ([2]; end of study, ankle joint sections, hematoxylin and eosin, FIG. 9): undetectable | hind leg swelling and redness with ankle joint thickening ([2]; end of study, representative photographs, FIG. 9): attenuated | solubility in chloroform and petroleum ([3]; chloroform and petroleum): insoluble | solubility in methanol, ethanol, aceton, ethyl acetate ([3]; methanol, ethanol, aceton, ethyl acetate): soluble | solubility in water ([3]; water): slightly soluble | stability to oxidation [4]: easily oxidized | inhibitory effect on cathepsin K activity [5]: significant inhibitory effect | inhibition of the cathepsin K activity (collagen degradation) [6]: complete inhibition
